In article PMC12040169 (PLOS Biology, 2025):

Test: in vitro
Conditions: human, hela cells, % viability

| SMILES | viability at 28.5 h, 10 µM [%] |
| --- | --- |
| COCCCN1C(=O)c2[nH]nc(-c3cc(C)c(C)cc3O)c2C1c1ccc(SC)cc1 (centres unmarked) [CBK268884] | 89 |
| Cn1c(=O)c2c(nc(Oc3ccccc3Cl)n2Cc2cccc(C(F)(F)F)c2)n(C)c1=O [CBK265940] | 89.7 |
| Cc1cc(C)c2c(O)nc(SCC(=O)c3ccccc3)nc2n1 [CBK264336] | 100 |
| CC1CCCN(CC(=O)NCc2ccc(OCC(N)=O)cc2)CC1 (centres unmarked) [CBK305755] | 92.1 |
| CC(O)CN1CCN(c2nc(-c3ccncc3)nc3c2CCC3)CC1 (centres unmarked) [CBK304971] | 90.3 |
| N#Cc1sc2c(c1NC(=O)C(F)(F)F)CCCC2 [CBK019233] | 92.1 |
| CC(C)OC(=O)c1nnn(-c2nonc2N)c1CN1CCCCCC1 [CBK027601] | 94 |
| O=C(Nc1ccsc1C(=O)O)c1ccccc1Cl [CBK152440] | 98.4 |
| Cc1[nH]c2cc(C(=O)O)ccc2c1CC(=O)O [CBK269955] | 98 |
| O=c1[nH][nH]c2nc(O)cc(C(F)(F)F)c12 [CBK027081] | 109 |
| CC1CCN(CC(=O)NC2CCN(C(C)c3ccccc3)CC2)CC1 (centres unmarked) [CBK284017] | 101 |
| Cc1ccc2oc(C(=O)N3CCC(Oc4cccnc4)CC3)cc2c1 [CBK281498] | 106 |
| COc1ncc(-c2cncc(N3CCN(c4ccccc4C#N)CC3)n2)c(OC)n1 [CBK037872] | 105 |
| COc1ccc(NC(=O)N[C@@H]2C=C[C@@H](c3c(C)nn(CCC#N)c3C)C2)cc1 [CBK288804] | 94.2 |
| CCCc1nc(NC(CC)c2nc(C)c(C)s2)c2cnn(C)c2n1 (centres unmarked) [CBK307261] | 89.1 |
| CCN(CC)CCSc1nc(O)c(-c2ccccc2)c(=O)n1-c1ccccc1 [CBK263335C] | 111 |
| Cc1cc(C)cc(OCc2nnc(SCC(=O)Nc3cc(C(F)(F)F)ccc3Cl)o2)c1 [CBK267890] | 94.6 |
| CCN1CCCC1CNC(=O)c1cccc(Cl)c1 (centres unmarked) [CBK262621] | 84.3 |
| CNc1cc(N2CCN(S(=O)(=O)c3ccc(C)cc3)CC2)ccc1[N+](=O)[O-] [CBK266005] | 104 |
| COc1ccc(CCNc2ncnc3[nH]cnc23)cc1OC [CBK134342] | 110 |
| Cc1nnc(NC(=O)C2CCN(C(=O)c3cccc(F)c3)CC2)s1 [CBK307588] | 93.2 |

| SMILES | viability at 28.5 h, 10 µM [%] |
| --- | --- |
| Cc1noc(CN2CCN(c3ccc4nnc(C(F)(F)F)n4n3)CC2)n1 [CBK305566] | 93.3 |
| CS(=O)(=O)c1ccc(-c2cnc(N)c(NCC3CCOCC3)n2)cc1 [CBK063849] | 103 |
| Cc1ccc(OCc2occc2C(=O)N2CCC(O)(CN(C)C)C2)cc1 (centres unmarked) [CBK307341] | 95.6 |
| O=C(Nc1cc(Cl)ccc1Cl)C1CN(S(=O)(=O)c2ccccc2)CCN1S(=O)(=O)c1ccccc1 (centres unmarked) [CBK267004] | 88.7 |
| CCOC(=O)C1CSCCN1C(=O)c1cnn(-c2ccc(Br)cc2)c1C (centres unmarked) [CBK304550] | 102 |
| COc1cc(-c2cn3ccnc3c(N(C)CCN(C)C)n2)cc(OC)c1OC [CBK066196] | 100 |
| CSc1ccc(-c2cnc3nc(N)ccc3c2)cc1 [CBK081169] | 85.2 |
| O=C(Cc1c(Cl)cccc1Cl)Nc1ccc2[nH]ccc2c1 [CBK159664] | 113 |
| CCN1CCCC1CNC(=O)c1ccc(-c2ccco2)nc1N1CCN(C(=O)c2ccco2)CC1 (centres unmarked) [CBK076206] | 90.4 |
| O=C(Nc1ccc(S(=O)(=O)Nc2ncccn2)cc1)c1ccc(Cl)c([N+](=O)[O-])c1 [CBK263739] | 101 |
| Cc1ccc(NC(=O)c2cnc(SCc3ccc(F)cc3)n(C)c2=O)cc1C [CBK287674] | 90.5 |
| Cc1nc2n(/N=C/c3ccc([N+](=O)[O-])cc3)c3ccccc3n2c1C#N [CBK263107] | 88.4 |
| CC(C)CCNC(=O)N(CCc1ccccc1)Cc1ccccc1 [CBK155351] | 90.8 |
| CS(=O)(=O)Nc1ccc2c(O)c(C(=O)NCc3ccc(Cl)cc3)c(=O)[nH]c2c1 [CBK017559] | 88.9 |
| O=C1CCCN1CCOc1nccnc1/C=C/c1ccccc1 [CBK106875] | 92.4 |
| CCNC(=O)NCc1ccc(F)cc1 [CBK115581] | 84.9 |
| CN(CC(=O)Nc1cccc(Cl)c1)S(=O)(=O)c1ccc2ccccc2c1 [CBK266746] | 105 |
| CC(=O)N1CCC[C@H]2NC(=O)CNC(=O)C3(C/C=C/C[C@H]21)CCN(CC(C)C)CC3 [CBK292088] | 106 |
| Cc1ccc(C(=O)NNC(=O)/C=C\C(=O)O)cc1 [CBK261842] | 86.9 |
| C[C@H](NC1=NC(=O)C2(CCN(Cc3ccccc3)CC2)O1)c1ccccc1 [CBK122798T] | 88.6 |
| CSc1oc(-c2ccccc2)nc1C(N)=O [CBK067744] | 98.4 |

| SMILES | viability at 28.5 h, 10 µM [%] |
| --- | --- |
| COc1ccc(C(=O)C2=C(O)C(=O)N(CCN(C)C)C2c2cccc([N+](=O)[O-])c2)cc1C (centres unmarked) [CBK264875] | 85.2 |
| O=C(NCC1CCCCC1)C1(Cc2ccc(-c3cccnc3)cc2)CCOCC1 [CBK285591] | 92.6 |
| CC(NS(=O)(=O)c1ccc(OCC(=O)N2CCc3ccccc3C2)c(Cl)c1)c1ccccc1 (centres unmarked) [CBK269117] | 92 |
| COc1ncc(-c2nccnc2NCc2cccc([N+](=O)[O-])c2)c(OC)n1 [CBK036680] | 97.7 |
| Nc1ncc(-c2ccco2)nc1-c1ccc(C(=O)NCCO)cc1 [CBK064124] | 91.1 |
| Cc1cc(Br)c(NC(=O)COc2ccc(/C=C(\C#N)C(N)=S)cc2)cc1C [CBK269014] | 97.5 |
| CCOC(=O)C1CCCN(CCC(=O)Nc2cc(C)cc(C)c2)C1 (centres unmarked) [CBK264284] | 100 |
| COc1ccccc1C1(NCc2cnn(C)c2)CCCC1 [CBK282744] | 97 |
| Cc1noc(-c2cn(C)nc2C2CCCCN2C(=O)C2CC2)c1C (centres unmarked) [CBK283410] | 96.9 |
| Cc1nc2c(c(=O)[nH]1)CC[C@@H]1CN(C(=O)Cc3ccsc3)C[C@H]21 [CBK284411] | 83.5 |
| Nc1cc2cccnc2c(-c2ccc3c(c2)CCO3)n1 [CBK081173] | 98 |
| Nc1ncc(-c2cc3ccccc3s2)nc1-c1ccc(CCC(=O)O)cc1 [CBK064134] | 98.1 |
| COc1ccc(Nc2cc(Cl)ccc2C(=O)NC(C)(C)CN2CCOCC2)cn1 [CBK107436] | 97.1 |
| CN1C[C@@H](C(=O)N2CCCCCC2)[C@@]2(CCc3ccccc3C2=O)C1 [CBK284590] | 87 |
| CC(=O)N1CCN(c2ccccc2NC(=O)Cc2ccccc2C(=O)O)CC1 [CBK286802] | 87.6 |
| O=C(c1cc(S(=O)(=O)N2CCOCC2)ccc1Cl)N1CCCCC1CO (centres unmarked) [CBK304579] | 88.6 |
| Cc1ccc(S(=O)(=O)N(CC(=O)Nc2cccnc2)c2ccc(C)c(C)c2)cc1 [CBK263974] | 75.4 |
| NC(=O)c1ccc(-c2cc(Nc3ccc(CCO)cc3)ncn2)cc1 [CBK090773] | 102 |
| O=C(Cc1ccc(F)cc1)N1CCC(c2cc3cnccc3[nH]2)CC1 [CBK283454] | 85.7 |
| CS(=O)(=O)N1CCc2cc(S(=O)(=O)NCCc3c[nH]c4ccccc34)ccc21 [CBK268487] | 101 |
| COc1ccccc1NC(=O)CN(c1ccc(C)cc1)S(=O)(=O)c1ccc(F)cc1 [CBK262718] | 91.2 |

| SMILES | viability at 28.5 h, 10 µM [%] |
| --- | --- |
| Cc1c(OCc2ccc(C(=O)O)cc2)ccc2c(-c3ccccc3)cc(=O)oc12 [CBK296080] | 117 |
| COc1cccc([C@H]2CN(C(=O)c3ccccc3)[C@@H]3CCN(Cc4cccc(F)c4)C[C@H]23)c1 [CBK285626] | 92.6 |
| CC1Cc2cc(C(=O)N3CCCCC3CN(C)C)ccc2O1 (centres unmarked) [CBK282193] | 110 |
| COc1cc(Nc2nc(-c3cccc(OC(F)(F)F)c3)cn3ccnc23)cc(OC)c1OC [CBK038036] | 101 |
| CCN(CC(=O)NCc1ccc(F)cc1)C(=O)c1cc(C#N)c[nH]1 [CBK305221] | 87.9 |
| Cc1cc2c(cc1C)N(C(=O)CSc1ncn[nH]1)C(C)(C)c1ssc(=S)c1-2 [CBK263786] | 96.3 |
| CCN(CC1CCN(C)C1)C(=O)c1cc(COc2cccc(F)c2)[nH]n1 (centres unmarked) [CBK307239] | 88.8 |
| O=C(COc1cccnc1)N1CCc2ccccc21 [CBK200268] | 107 |
| CC(=O)Nc1ccc(-c2ccc(C(=O)NCC3COc4ccccc4O3)cn2)cc1 (centres unmarked) [CBK158832] | 99.3 |
| NC(=O)C1CCN(C2=NC(=O)/C(=C/c3cn(-c4ccccc4)nc3-c3cccs3)S2)CC1 [CBK265179] | 97.3 |
| COCC(=O)NC(Cc1ccsc1)c1nc(C)c(C)s1 (centres unmarked) [CBK284773] | 100 |
| CCCc1nc(SC)ncc1C(=O)Nc1nnc(SCC)s1 [CBK291198] | 108 |
| O=C1CC(c2ccccc2)CC(=O)N1c1nnn[nH]1 [CBK291154] | 85.5 |
| COc1ccc(C(C)C)cc1-c1cc(Nc2cc(OC)c(OC)c(OC)c2)n2nccc2n1 [CBK037746] | 103 |
| Cc1ccc(NC(=O)C2CCCCC2C(=O)O)cc1Cl (centres unmarked) [CBK286938] | 99.9 |
| Cc1ccccc1CN1CC[C@H]2[C@@H](C1)[C@H](c1ccsc1)CN2C(=O)c1ccc(F)cc1 [CBK285638] | 102 |
| CC(=O)Nc1ccc(C(=O)N2CCNC(=O)C2Cc2ccccc2-c2cccc(C)c2)cc1 (centres unmarked) [CBK285837] | 106 |
| Cc1ccc2nc(N3CCCC(O)C3)c(CN3CCC(F)CC3)cc2c1 (centres unmarked) [CBK307016] | 89.1 |
| Cc1nn(C)cc1C(C)NC(=O)C1CC2C=CC1C21CC1 (centres unmarked) [CBK282088] | 100 |
| O=S(=O)(c1ccc(F)cc1)N1CCCC1c1cccc(Cc2cccc(F)c2)n1 (centres unmarked) [CBK286209] | 93.9 |
| CCCS(=O)(=O)n1ccn(-c2ccc(Cl)c(Cl)c2)c1=O [CBK106667] | 110 |

Same assay, conditions: human, hela cells, % viability, bulk resorufin, single well

| SMILES | viability at 28.5 h, 10 µM [%] |
| --- | --- |
| O=C1NC(=S)N(Cc2ccccc2)C(=O)C1(CCc1ccncc1)CCc1ccncc1 [CBK269137] | 106 |
| O=C(O)c1ccccc1C(=O)N1CCC2(CC1)OCc1cc(-c3ccco3)ccc1O2 [CBK060824] | 93.6 |
